Experimental data published in PubChem BioAssay AID1963830 (Molecular Pharmacology Branch, DTP, NCI, 2024).

Tested on: 922993-354-T-J3-PDC complex spheroid viability
Assay: Anticancer human tumor 922993-354-T-J3-PDC patient-derived endometrial carcinoma cell line growth inhibition [POLQ]
Conditions: for IC50: curve of first compound; for viability, T/C: stronger effect = lower value
How it was run: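 Growth inhibition in 3D: complex spheroids (tumor PDC, HUVEC, MSC) treated with POLQ inhibitor combinations; where Cmax unknown, highest tested concentration 10 microM, except SN-38 at 1 microM.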

[1] = second compound 0.0316 µM, first compound 0.0316 µM
[2] = second compound 0.0316 µM, first compound 0.1 µM
[3] = second compound 0.1 µM, first compound 0.0316 µM
[4] = second compound 0.1 µM, first compound 0.1 µM
[5] = second compound 0.316 µM, first compound 0.0316 µM
[6] = second compound 0.316 µM, first compound 0.1 µM
[7] = second compound 1 µM, first compound 0.0316 µM
[8] = second compound 1 µM, first compound 0.1 µM
[9] = second compound 3.16 µM, first compound 0.0316 µM
[10] = second compound 3.16 µM, first compound 0.1 µM
[11] = second compound 10 µM, first compound 0.0316 µM
[12] = second compound 10 µM, first compound 0.1 µM
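Note: spheroids exposed to the agents for one week.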
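Throughout, for viability, T/C: 100% = DMSO vehicle control wells.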

Which IC50 (second compound 0.0316 µM) does the source give for `O=C(c1cc(Cc2n[nH]c(=O)c3ccccc23)ccc1F)N1CCN(C(=O)C2CC2)CC1` + Cc1cccc(N(C)C(=O)C2C(O)CCN2c2nc(C)cc(C(F)(F)F)c2C#N)c1 here?
Its IC50 is greater than 10000 nM.

What about the IC50 (second compound 0.1 µM) of the same molecule?
The IC50 was greater than 10000 nM.

And the IC50 (second compound 0.316 µM)?
The IC50 was greater than 10000 nM.

What about the IC50 (second compound 1 µM) of the same molecule?
Its IC50 is greater than 10000 nM.

And the IC50 (second compound 3.16 µM)?
The IC50 was greater than 10000 nM.

What about the IC50 (second compound 10 µM) of the same molecule?
The IC50 was greater than 10000 nM.

And the viability, T/C [1]?
Its viability, T/C is 104%.

What about the viability, T/C [2] of the same molecule?
Its viability, T/C is 103%.

What about the viability, T/C (second compound 0.0316 µM, first compound 0.316 µM) of the same molecule?
Its viability, T/C is 101%.

And the viability, T/C (second compound 0.0316 µM, first compound 1 µM)?
Its viability, T/C is 113%.

And the viability, T/C (second compound 0.0316 µM, first compound 3.16 µM)?
Its viability, T/C is 99.2%.

What about the viability, T/C (second compound 0.0316 µM, first compound 10 µM) of the same molecule?
The viability, T/C was 92.4%.

What about the viability, T/C [3] of the same molecule?
Its viability, T/C is 111%.

And the viability, T/C [4]?
Its viability, T/C is 103%.

And the viability, T/C (second compound 0.1 µM, first compound 0.316 µM)?
The viability, T/C was 111%.

And the viability, T/C (second compound 0.1 µM, first compound 1 µM)?
Its viability, T/C is 102%.

What about the viability, T/C (second compound 0.1 µM, first compound 3.16 µM) of the same molecule?
The viability, T/C was 103%.

And the viability, T/C (second compound 0.1 µM, first compound 10 µM)?
Its viability, T/C is 109%.

And the viability, T/C [5]?
The viability, T/C was 113%.

And the viability, T/C [6]?
Its viability, T/C is 108%.

And the viability, T/C (second compound 0.316 µM, first compound 0.316 µM)?
The viability, T/C was 104%.

What about the viability, T/C (second compound 0.316 µM, first compound 1 µM) of the same molecule?
The viability, T/C was 112%.

And the viability, T/C (second compound 0.316 µM, first compound 3.16 µM)?
The viability, T/C was 92.9%.

What about the viability, T/C (second compound 0.316 µM, first compound 10 µM) of the same molecule?
The viability, T/C was 103%.

What about the viability, T/C [7] of the same molecule?
Its viability, T/C is 96.4%.

And the viability, T/C [8]?
The viability, T/C was 108%.

And the viability, T/C (second compound 1 µM, first compound 0.316 µM)?
Its viability, T/C is 106%.

And the viability, T/C (second compound 1 µM, first compound 1 µM)?
Its viability, T/C is 107%.

What about the viability, T/C (second compound 1 µM, first compound 3.16 µM) of the same molecule?
Its viability, T/C is 99.1%.

And the viability, T/C (second compound 1 µM, first compound 10 µM)?
Its viability, T/C is 109%.

And the viability, T/C [9]?
Its viability, T/C is 98.3%.

What about the viability, T/C [10] of the same molecule?
The viability, T/C was 107%.

And the viability, T/C (second compound 3.16 µM, first compound 0.316 µM)?
The viability, T/C was 95.3%.

And the viability, T/C (second compound 3.16 µM, first compound 1 µM)?
Its viability, T/C is 94.7%.

What about the viability, T/C (second compound 3.16 µM, first compound 3.16 µM) of the same molecule?
The viability, T/C was 109%.

And the viability, T/C (second compound 3.16 µM, first compound 10 µM)?
The viability, T/C was 106%.

What about the viability, T/C [11] of the same molecule?
Its viability, T/C is 100%.

What about the viability, T/C [12] of the same molecule?
The viability, T/C was 97.7%.

And the viability, T/C (second compound 10 µM, first compound 0.316 µM)?
The viability, T/C was 112%.

And the viability, T/C (second compound 10 µM, first compound 1 µM)?
The viability, T/C was 104%.

What about the viability, T/C (second compound 10 µM, first compound 3.16 µM) of the same molecule?
The viability, T/C was 104%.

And the viability, T/C (second compound 10 µM, first compound 10 µM)?
The viability, T/C was 103%.

`CC[C@@]1(O)C(=O)OCc2c1cc1n(c2=O)Cc2cc3c(CN(C)C)c(O)ccc3nc2-1` + Nc1ccc(C#CCN(C(=O)Cc2ncc(C(F)(F)F)cc2C(F)(F)F)c2ccc(F)cc2)nn1 was tested. Which IC50 (second compound 0.0316 µM) did it give?
Its IC50 is greater than 100 nM.

And the IC50 (second compound 0.1 µM)?
Its IC50 is greater than 100 nM.

What about the IC50 (second compound 0.316 µM) of the same molecule?
Its IC50 is greater than 100 nM.

What about the IC50 (second compound 1 µM) of the same molecule?
Its IC50 is greater than 100 nM.

What about the IC50 (second compound 3.16 µM) of the same molecule?
Its IC50 is greater than 100 nM.

What about the IC50 (second compound 10 µM) of the same molecule?
The IC50 was 54.7 nM.

And the viability, T/C (second compound 0.0316 µM, first compound 0.000316 µM)?
The viability, T/C was 103%.

And the viability, T/C (second compound 0.0316 µM, first compound 0.001 µM)?
The viability, T/C was 105%.

And the viability, T/C (second compound 0.0316 µM, first compound 0.00316 µM)?
The viability, T/C was 99.4%.

And the viability, T/C (second compound 0.0316 µM, first compound 0.01 µM)?
The viability, T/C was 101%.

And the viability, T/C [1]?
The viability, T/C was 100%.

What about the viability, T/C [2] of the same molecule?
The viability, T/C was 89.5%.

And the viability, T/C (second compound 0.1 µM, first compound 0.000316 µM)?
The viability, T/C was 102%.

And the viability, T/C (second compound 0.1 µM, first compound 0.001 µM)?
The viability, T/C was 105%.

What about the viability, T/C (second compound 0.1 µM, first compound 0.00316 µM) of the same molecule?
The viability, T/C was 100%.

And the viability, T/C (second compound 0.1 µM, first compound 0.01 µM)?
The viability, T/C was 102%.

What about the viability, T/C [3] of the same molecule?
Its viability, T/C is 102%.

What about the viability, T/C [4] of the same molecule?
Its viability, T/C is 87.2%.

What about the viability, T/C (second compound 0.316 µM, first compound 0.000316 µM) of the same molecule?
The viability, T/C was 105%.

What about the viability, T/C (second compound 0.316 µM, first compound 0.001 µM) of the same molecule?
Its viability, T/C is 98.1%.

And the viability, T/C (second compound 0.316 µM, first compound 0.00316 µM)?
The viability, T/C was 103%.

What about the viability, T/C (second compound 0.316 µM, first compound 0.01 µM) of the same molecule?
Its viability, T/C is 98.9%.

What about the viability, T/C [5] of the same molecule?
The viability, T/C was 103%.

What about the viability, T/C [6] of the same molecule?
The viability, T/C was 81.1%.

What about the viability, T/C (second compound 1 µM, first compound 0.000316 µM) of the same molecule?
The viability, T/C was 105%.

And the viability, T/C (second compound 1 µM, first compound 0.001 µM)?
The viability, T/C was 103%.

And the viability, T/C (second compound 1 µM, first compound 0.00316 µM)?
Its viability, T/C is 100%.

What about the viability, T/C (second compound 1 µM, first compound 0.01 µM) of the same molecule?
Its viability, T/C is 99.2%.

And the viability, T/C [7]?
The viability, T/C was 96%.

What about the viability, T/C [8] of the same molecule?
The viability, T/C was 82.2%.

And the viability, T/C (second compound 3.16 µM, first compound 0.000316 µM)?
Its viability, T/C is 101%.

What about the viability, T/C (second compound 3.16 µM, first compound 0.001 µM) of the same molecule?
Its viability, T/C is 102%.

And the viability, T/C (second compound 3.16 µM, first compound 0.00316 µM)?
Its viability, T/C is 103%.

And the viability, T/C (second compound 3.16 µM, first compound 0.01 µM)?
Its viability, T/C is 94.5%.

What about the viability, T/C [9] of the same molecule?
Its viability, T/C is 92.9%.

And the viability, T/C [10]?
Its viability, T/C is 72.9%.

What about the viability, T/C (second compound 10 µM, first compound 0.000316 µM) of the same molecule?
The viability, T/C was 100%.

What about the viability, T/C (second compound 10 µM, first compound 0.001 µM) of the same molecule?
Its viability, T/C is 91.3%.

What about the viability, T/C (second compound 10 µM, first compound 0.00316 µM) of the same molecule?
The viability, T/C was 97%.

What about the viability, T/C (second compound 10 µM, first compound 0.01 µM) of the same molecule?
Its viability, T/C is 92.9%.

What about the viability, T/C [11] of the same molecule?
The viability, T/C was 71.8%.

What about the viability, T/C [12] of the same molecule?
The viability, T/C was 25.9%.
